The experiment addresses T1, SMYD3 (Homo sapiens, UniProt Q9H7B4).
T1 sequence (Q9H7B4 1-428): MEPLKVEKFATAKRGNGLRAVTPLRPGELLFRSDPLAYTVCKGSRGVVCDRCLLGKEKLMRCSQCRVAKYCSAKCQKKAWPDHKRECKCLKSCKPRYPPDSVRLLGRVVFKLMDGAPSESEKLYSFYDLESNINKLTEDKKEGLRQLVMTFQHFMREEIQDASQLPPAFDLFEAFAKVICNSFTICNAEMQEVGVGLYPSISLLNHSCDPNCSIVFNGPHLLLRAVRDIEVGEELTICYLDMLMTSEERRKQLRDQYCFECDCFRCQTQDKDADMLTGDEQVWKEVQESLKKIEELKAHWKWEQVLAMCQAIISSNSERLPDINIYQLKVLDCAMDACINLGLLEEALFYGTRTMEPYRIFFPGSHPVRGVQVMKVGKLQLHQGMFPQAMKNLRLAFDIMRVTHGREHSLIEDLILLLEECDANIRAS
The experiment can be described thus: LC-MS methyltransferase assay, MAP3K2 […]-274 peptide, inhibition at […]. Format: biochemical. The following applies: 0.63 µM.

The record followed here is paper PMC8248052 (Chembiochem, 2021).

Regarding `O=C1Cc2cc(C(=O)NC3C[C@H]4CC[C@@H](C3)N4S(=O)(=O)CC3CCN(CCCC(F)(F)F)CC3)c(Cl)cc2N1` (stereo partly shown) [EPZ031686], the “Inhibition [%]” value is 52.8±1.7.
